Source: PubChem BioAssay (NCI)
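Compound exposure: 48 hours, 5 concentrations, 96-well plates. TGI is the concentration that stops growth completely.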

Legend:
Assay in all cases: DTP human tumour cell line panel, 48 h
786-0 renal = tested on: 786-0 renal
A498 renal = tested on: A498 renal
A549 NSCLC = tested on: A549 NSCLC
ACHN renal = tested on: ACHN renal
BT-549 breast = tested on: BT-549 breast
CAKI-1 renal = tested on: CAKI-1 renal
CCRF-CEM leukemia = tested on: CCRF-CEM leukemia
COLO 205 colon = tested on: COLO 205 colon
DU-145 prostate = tested on: DU-145 prostate
EKVX NSCLC = tested on: EKVX NSCLC
HCC-2998 colon = tested on: HCC-2998 colon
HCT-116 colon = tested on: HCT-116 colon
HCT-15 colon = tested on: HCT-15 colon
HL-60(TB) leukemia = tested on: HL-60(TB) leukemia
HOP-62 NSCLC = tested on: HOP-62 NSCLC
HOP-92 NSCLC = tested on: HOP-92 NSCLC
HS 578T breast = tested on: HS 578T breast
HT29 colon = tested on: HT29 colon
IGROV1 ovarian = tested on: IGROV1 ovarian
K-562 leukemia = tested on: K-562 leukemia
KM12 colon = tested on: KM12 colon
LOX IMVI melanoma = tested on: LOX IMVI melanoma
M14 melanoma = tested on: M14 melanoma
MALME-3M melanoma = tested on: MALME-3M melanoma
MCF7 breast = tested on: MCF7 breast
MDA-MB-231 breast = tested on: MDA-MB-231 breast
MDA-MB-435 = tested on: MDA-MB-435
MDA-N = tested on: MDA-N
MOLT-4 leukemia = tested on: MOLT-4 leukemia
NCI-H226 lung = tested on: NCI-H226 lung
NCI-H23 lung = tested on: NCI-H23 lung
NCI-H460 lung = tested on: NCI-H460 lung
NCI-H522 lung = tested on: NCI-H522 lung
NCI/ADR-RES ovarian = tested on: NCI/ADR-RES ovarian
OVCAR-3 ovarian = tested on: OVCAR-3 ovarian
OVCAR-4 ovarian = tested on: OVCAR-4 ovarian
OVCAR-5 ovarian = tested on: OVCAR-5 ovarian
OVCAR-8 ovarian = tested on: OVCAR-8 ovarian
PC-3 prostate = tested on: PC-3 prostate
RPMI-8226 leukemia = tested on: RPMI-8226 leukemia
RXF 393 renal = tested on: RXF 393 renal
SF-268 CNS = tested on: SF-268 CNS
SF-295 CNS = tested on: SF-295 CNS
SF-539 CNS = tested on: SF-539 CNS
SK-MEL-2 melanoma = tested on: SK-MEL-2 melanoma
SK-MEL-28 melanoma = tested on: SK-MEL-28 melanoma
SK-MEL-5 melanoma = tested on: SK-MEL-5 melanoma
SK-OV-3 ovarian = tested on: SK-OV-3 ovarian
SN12C renal = tested on: SN12C renal
SNB-19 CNS = tested on: SNB-19 CNS
SNB-75 CNS = tested on: SNB-75 CNS
SR leukemia = tested on: SR leukemia
SW-620 colon = tested on: SW-620 colon
T-47D breast = tested on: T-47D breast
TK-10 renal = tested on: TK-10 renal
U251 CNS = tested on: U251 CNS
UACC-257 melanoma = tested on: UACC-257 melanoma
UACC-62 melanoma = tested on: UACC-62 melanoma
UO-31 renal = tested on: UO-31 renal
DLD-1 colon = tested on: DLD-1 colon
DMS 114 small cell lung = tested on: DMS 114 small cell lung
DMS 273 small cell lung = tested on: DMS 273 small cell lung
KM20L2 colon = tested on: KM20L2 colon
LXFL 529 NSCLC = tested on: LXFL 529 NSCLC
M19-MEL melanoma = tested on: M19-MEL melanoma
SNB-78 CNS = tested on: SNB-78 CNS
XF 498 CNS = tested on: XF 498 CNS

## C=CCN1C(=O)/C(=C/c2ccco2)N=C1SC/C=C/C
786-0 renal
  TGI: > 100 µM
A498 renal
  TGI: > 100 µM
A549 NSCLC
  TGI: > 100 µM
ACHN renal
  TGI: > 100 µM
BT-549 breast
  TGI: > 100 µM
CAKI-1 renal
  TGI: > 100 µM
CCRF-CEM leukemia
  TGI: > 100 µM
COLO 205 colon
  TGI: > 100 µM
DU-145 prostate
  TGI: > 100 µM
EKVX NSCLC
  TGI: > 100 µM
HCC-2998 colon
  TGI: > 100 µM
HCT-116 colon
  TGI: > 100 µM
HCT-15 colon
  TGI: > 100 µM
HL-60(TB) leukemia
  TGI: 76 µM
HOP-62 NSCLC
  TGI: > 100 µM
HOP-92 NSCLC
  TGI: > 100 µM
HS 578T breast
  TGI: > 100 µM
HT29 colon
  TGI: > 100 µM
IGROV1 ovarian
  TGI: > 100 µM
K-562 leukemia
  TGI: > 100 µM
KM12 colon
  TGI: > 100 µM
LOX IMVI melanoma
  TGI: 80.6 µM
M14 melanoma
  TGI: > 100 µM
MALME-3M melanoma
  TGI: > 100 µM
MCF7 breast
  TGI: 65.1 µM
MDA-MB-231 breast
  TGI: > 100 µM
MDA-MB-435
  TGI: > 100 µM
MDA-N
  TGI: 77.5 µM
MOLT-4 leukemia
  TGI: 54.7 µM
NCI-H226 lung
  TGI: > 100 µM
NCI-H23 lung
  TGI: > 100 µM
NCI-H460 lung
  TGI: > 100 µM
NCI-H522 lung
  TGI: > 100 µM
NCI/ADR-RES ovarian
  TGI: > 100 µM
OVCAR-3 ovarian
  TGI: > 100 µM
OVCAR-4 ovarian
  TGI: > 100 µM
OVCAR-5 ovarian
  TGI: > 100 µM
OVCAR-8 ovarian
  TGI: > 100 µM
PC-3 prostate
  TGI: > 100 µM
RPMI-8226 leukemia
  TGI: 76.6 µM
RXF 393 renal
  TGI: 96.1 µM
SF-268 CNS
  TGI: > 100 µM
SF-295 CNS
  TGI: > 100 µM
SF-539 CNS
  TGI: > 100 µM
SK-MEL-2 melanoma
  TGI: 86.4 µM
SK-MEL-28 melanoma
  TGI: > 100 µM
SK-MEL-5 melanoma
  TGI: 44.3 µM
SK-OV-3 ovarian
  TGI: > 100 µM
SN12C renal
  TGI: > 100 µM
SNB-19 CNS
  TGI: > 100 µM
SNB-75 CNS
  TGI: > 100 µM
SR leukemia
  TGI: 52.9 µM
SW-620 colon
  TGI: > 100 µM
T-47D breast
  TGI: > 100 µM
TK-10 renal
  TGI: > 100 µM
U251 CNS
  TGI: > 100 µM
UACC-257 melanoma
  TGI: > 100 µM
UACC-62 melanoma
  TGI: 73.7 µM
UO-31 renal
  TGI: > 100 µM

## O=C1C(Cl)C2(CC(/C=C/c3ccccc3Cl)=NN2c2cccc(S(=O)(=O)O)c2)N1c1nc2ccccc2s1 (stereo not drawn)
786-0 renal
  TGI: 62.3 µM
A498 renal
  TGI: > 100 µM
A549 NSCLC
  TGI: > 100 µM
ACHN renal
  TGI: > 100 µM
BT-549 breast
  TGI: > 100 µM
CAKI-1 renal
  TGI: 38.6 µM
CCRF-CEM leukemia
  TGI: 33.9 µM
COLO 205 colon
  TGI: > 100 µM
DU-145 prostate
  TGI: 87.5 µM
EKVX NSCLC
  TGI: > 100 µM
HCC-2998 colon
  TGI: > 100 µM
HCT-116 colon
  TGI: > 100 µM
HCT-15 colon
  TGI: > 100 µM
HL-60(TB) leukemia
  TGI: > 100 µM
HOP-92 NSCLC
  TGI: > 100 µM
HS 578T breast
  TGI: > 100 µM
HT29 colon
  TGI: > 100 µM
IGROV1 ovarian
  TGI: > 100 µM
K-562 leukemia
  TGI: > 100 µM
KM12 colon
  TGI: > 100 µM
LOX IMVI melanoma
  TGI: 27.4 µM
M14 melanoma
  TGI: > 100 µM
MALME-3M melanoma
  TGI: > 100 µM
MCF7 breast
  TGI: > 100 µM
MDA-MB-231 breast
  TGI: > 100 µM
MDA-MB-435
  TGI: 24.3 µM
MDA-N
  TGI: > 100 µM
MOLT-4 leukemia
  TGI: > 100 µM
NCI-H226 lung
  TGI: > 100 µM
NCI-H23 lung
  TGI: > 100 µM
NCI-H460 lung
  TGI: > 100 µM
NCI-H522 lung
  TGI: 26.9 µM
NCI/ADR-RES ovarian
  TGI: > 100 µM
OVCAR-4 ovarian
  TGI: > 100 µM
OVCAR-5 ovarian
  TGI: > 100 µM
OVCAR-8 ovarian
  TGI: > 100 µM
PC-3 prostate
  TGI: > 100 µM
RPMI-8226 leukemia
  TGI: 89.9 µM
RXF 393 renal
  TGI: > 100 µM
SF-268 CNS
  TGI: > 100 µM
SF-539 CNS
  TGI: 37.6 µM
SK-MEL-2 melanoma
  TGI: > 100 µM
SK-MEL-28 melanoma
  TGI: > 100 µM
SK-MEL-5 melanoma
  TGI: > 100 µM
SN12C renal
  TGI: > 100 µM
SNB-19 CNS
  TGI: > 100 µM
SNB-75 CNS
  TGI: > 100 µM
SR leukemia
  TGI: 25.3 µM
SW-620 colon
  TGI: > 100 µM
T-47D breast
  TGI: > 100 µM
TK-10 renal
  TGI: 84.6 µM
U251 CNS
  TGI: > 100 µM
UACC-257 melanoma
  TGI: > 100 µM
UACC-62 melanoma
  TGI: > 100 µM
UO-31 renal
  TGI: 16.3 µM

## O=c1[nH]c2cc([N+](=O)[O-])ccc2nc1/C(=N/Nc1ccccc1)C(O)c1ccccc1Cl (stereo not drawn)
786-0 renal
  TGI: > 100 µM
A549 NSCLC
  TGI: > 100 µM
ACHN renal
  TGI: > 100 µM
CCRF-CEM leukemia
  TGI: > 100 µM
COLO 205 colon
  TGI: > 100 µM
DLD-1 colon
  TGI: > 100 µM
DMS 114 small cell lung
  TGI: > 100 µM
DMS 273 small cell lung
  TGI: > 100 µM
EKVX NSCLC
  TGI: > 100 µM
HCC-2998 colon
  TGI: 64.5 µM
HCT-116 colon
  TGI: > 100 µM
HCT-15 colon
  TGI: 36.3 µM
HL-60(TB) leukemia
  TGI: > 100 µM
HOP-62 NSCLC
  TGI: > 100 µM
HOP-92 NSCLC
  TGI: > 100 µM
HT29 colon
  TGI: > 100 µM
IGROV1 ovarian
  TGI: > 100 µM
K-562 leukemia
  TGI: > 100 µM
KM12 colon
  TGI: > 100 µM
KM20L2 colon
  TGI: > 100 µM
LOX IMVI melanoma
  TGI: > 100 µM
LXFL 529 NSCLC
  TGI: > 100 µM
M14 melanoma
  TGI: > 100 µM
M19-MEL melanoma
  TGI: > 100 µM
MALME-3M melanoma
  TGI: > 100 µM
MOLT-4 leukemia
  TGI: > 100 µM
NCI-H226 lung
  TGI: > 100 µM
NCI-H23 lung
  TGI: > 100 µM
NCI-H460 lung
  TGI: > 100 µM
NCI-H522 lung
  TGI: > 100 µM
OVCAR-3 ovarian
  TGI: > 100 µM
OVCAR-4 ovarian
  TGI: > 100 µM
OVCAR-5 ovarian
  TGI: > 100 µM
OVCAR-8 ovarian
  TGI: > 100 µM
RPMI-8226 leukemia
  TGI: > 100 µM
RXF 393 renal
  TGI: > 100 µM
SF-268 CNS
  TGI: > 100 µM
SF-295 CNS
  TGI: > 100 µM
SF-539 CNS
  TGI: > 100 µM
SK-MEL-2 melanoma
  TGI: > 100 µM
SK-MEL-28 melanoma
  TGI: > 100 µM
SK-MEL-5 melanoma
  TGI: > 100 µM
SK-OV-3 ovarian
  TGI: > 100 µM
SN12C renal
  TGI: > 100 µM
SNB-19 CNS
  TGI: > 100 µM
SNB-75 CNS
  TGI: > 100 µM
SNB-78 CNS
  TGI: > 100 µM
SW-620 colon
  TGI: > 100 µM
TK-10 renal
  TGI: > 100 µM
U251 CNS
  TGI: > 100 µM
UACC-257 melanoma
  TGI: > 100 µM
UACC-62 melanoma
  TGI: > 100 µM
UO-31 renal
  TGI: > 100 µM
XF 498 CNS
  TGI: > 100 µM
